From patent US20260116868A1 (Arcus Biosciences, Inc., priority 2023, published 2026) come the findings set out here.

The IC50 is the point on the concentration scale where inhibition reaches its midpoint.

The target of the assay is T1, Cbl-b (Homo sapiens, UniProt Q13191).
T1 construct: biotin (biotinylated protein)
The assay can be described thus: Cbl-b probe displacement HTRF binding assay. The settings on record: 0.4 nM Cbl-b, 150 nM BODIPY probe. In short, it runs like this: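 Binding IC50 from four-parameter fit of HTRF signal loss, normalised to DMSO (0%) and no-protein (100%) wells. Biotinylated Cbl-b 0.4 nM was preincubated 60 min with compound (20-point 1:2 dilution) before 15 min with 150 nM BODIPY probe; Tb-streptavidin detection.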
(In TR-FRET formats the signal depends on donor and acceptor labels being close together.)

Each structure is given as a SMILES string.

T1 sequence (Q13191 whole entry, species assumed): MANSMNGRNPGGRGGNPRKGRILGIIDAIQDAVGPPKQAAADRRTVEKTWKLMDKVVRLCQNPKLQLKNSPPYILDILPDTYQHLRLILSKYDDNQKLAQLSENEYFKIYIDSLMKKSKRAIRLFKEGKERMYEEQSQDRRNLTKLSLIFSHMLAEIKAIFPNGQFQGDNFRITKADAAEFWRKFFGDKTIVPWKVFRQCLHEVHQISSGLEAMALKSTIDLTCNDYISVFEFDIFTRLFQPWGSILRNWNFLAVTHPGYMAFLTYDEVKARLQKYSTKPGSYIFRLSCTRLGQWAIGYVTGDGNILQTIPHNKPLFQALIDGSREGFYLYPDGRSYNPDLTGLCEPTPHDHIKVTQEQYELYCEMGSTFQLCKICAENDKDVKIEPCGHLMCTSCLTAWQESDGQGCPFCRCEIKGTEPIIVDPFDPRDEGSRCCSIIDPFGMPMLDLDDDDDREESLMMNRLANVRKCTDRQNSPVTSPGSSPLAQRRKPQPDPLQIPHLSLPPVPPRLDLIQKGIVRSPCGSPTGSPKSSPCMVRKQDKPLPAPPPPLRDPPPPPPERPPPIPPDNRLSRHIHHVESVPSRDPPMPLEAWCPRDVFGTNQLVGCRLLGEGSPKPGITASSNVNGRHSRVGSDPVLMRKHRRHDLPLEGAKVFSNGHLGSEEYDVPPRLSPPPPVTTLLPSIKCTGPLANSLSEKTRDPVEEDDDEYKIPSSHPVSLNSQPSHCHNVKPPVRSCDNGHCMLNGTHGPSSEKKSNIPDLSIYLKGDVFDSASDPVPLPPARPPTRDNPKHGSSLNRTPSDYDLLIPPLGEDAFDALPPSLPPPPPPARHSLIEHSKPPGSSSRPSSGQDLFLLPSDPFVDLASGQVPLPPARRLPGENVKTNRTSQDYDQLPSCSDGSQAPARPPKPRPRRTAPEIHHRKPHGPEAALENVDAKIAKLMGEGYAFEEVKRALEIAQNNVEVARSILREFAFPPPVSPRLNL

Take `CC(C)Nc1cc(-c2ccc(Cl)cc2C(=O)N2CC(F)(F)C2)cc(NC(=O)c2cc(CNC[C@@H]3CCCO3)cn(C3CC3)c2=O)n1` [Example 223]: the half-maximal inhibitory concentration (IC50) was under 0.1 µM.
Turning to `CO[C@@H](C)CNCc1cc(C(=O)Nc2cc(-c3c(F)cc(C#N)cc3C(=O)N3CC(F)(F)C3)cc(C3CC3)n2)c(=O)n(C2CC2)c1` [Example 224], the IC50 is under 0.1 µM.
Then `CCOc1cc(-c2ccc(Cl)cc2C(=O)N2CC(F)(F)C2)cc(NC(=O)c2cc(CNC[C@@H]3CCCO3)cn(C3CC3)c2=O)n1` [Example 225], with under 0.1 µM.
`CO[C@@H](C)[C@H](C)NCc1cc(C(=O)Nc2cc(-c3c(F)cc(C#N)cc3C(=O)N3CC(F)(F)C3)cc(OC(C)C)n2)c(=O)n(C)c1` [Example 226] displayed an IC50 of under 0.1 µM.
Under `CC(C)Oc1cc(-c2c(F)cc(C#N)cc2C(=O)N2CC(F)(F)C2)cc(NC(=O)c2cc(CN[C@@H](C)C3CCC3)cn(C)c2=O)n1` [Example 227] stands under 0.1 µM; under `CO[C@@H](C)CNCc1cc(C(=O)Nc2cc(-c3c(F)cc(C#N)cc3C(=O)N3CC(F)(F)C3)cc(C3CC3)n2)c(=O)n(C)c1` [Example 228], under 0.1 µM; under `CO[C@@H](C)[C@H](C)NCc1cc(C(=O)Nc2cc(-c3c(F)cc(C#N)cc3C(=O)N3CC(F)(F)C3)cc(C3CC3)n2)c(=O)n(C)c1` [Example 229], under 0.1 µM.
For the molecule `CC(C)CNCc1cc(C(=O)Nc2cc(-c3c(F)cc(C#N)cc3C(=O)N3CC(F)(F)C3)cc(C3CC3)n2)c(=O)n(C2CC2)c1` [Example 230], the IC50 is under 0.1 µM.
Under `N#Cc1cc(F)c(-c2cc(NC(=O)c3cc(CNC[C@@H]4CCCO4)cn(C4CC4)c3=O)nc(C3CC3)c2)c(C(=O)N2CC(F)(F)C2)c1` [Example 231] stands under 0.1 µM; under `C[C@H](NCc1cc(C(=O)Nc2cc(-c3c(F)cc(C#N)cc3C(=O)N3CC(F)(F)C3)cc(C3CC3)n2)c(=O)n(C2CC2)c1)C1CC1` [Example 232], under 0.1 µM; under `CC(C)Oc1cc(-c2c(F)cc(C#N)cc2C(=O)N2CC(F)(F)C2)cc(NC(=O)c2cc(CN[C@@H](C)C3CC3)cn(C)c2=O)n1` [Example 233], under 0.1 µM.
The molecule `CC(C)CNCc1cc(C(=O)Nc2cc(-c3c(F)cc(C#N)cc3C(=O)N3CC(F)(F)C3)cc(OC(C)C)n2)c(=O)n(C)c1` [Example 234] displayed a 50% inhibitory concentration (IC50) of under 0.1 µM.
Under `CO[C@@H](C)CNCc1cc(C(=O)Nc2cc(-c3c(F)cc(C#N)cc3C(=O)N3CC(F)(F)C3)cc(OC(C)C)n2)c(=O)n(C)c1` [Example 235] stands under 0.1 µM.
With `C[C@H](NCc1cc(C(=O)Nc2cc(-c3c(F)cc(C#N)cc3C(=O)N3CC(F)(F)C3)cc(C3CC3)n2)c(=O)n(C)c1)C1CC1` [Example 236], the IC50 was under 0.1 µM.
Then `COCCNCc1cc(C(=O)Nc2cc(-c3c(F)cc(C#N)cc3C(=O)N3CC(F)(F)C3)cc(C3CC3)n2)c(=O)n(C2CC2)c1` [Example 237], with under 0.1 µM.
In turn, `CCOc1cc(-c2ccc(Cl)cc2C(=O)N2CC(F)(F)C2)cc(NC(=O)c2cc(CN[C@@H](C)COC)cn(C3CC3)c2=O)n1` [Example 238] displayed an IC50 of under 0.1 µM.
Then `CC(C)Oc1cc(-c2c(F)cc(C#N)cc2C(=O)N2CC(F)(F)C2)cc(NC(=O)c2cc(CNC[C@@H]3CCCO3)cn(C)c2=O)n1` [Example 239], with under 0.1 µM; and `CCOc1cc(-c2ccc(Cl)cc2C(=O)N2CC(F)(F)C2)cc(NC(=O)c2cc(CNCC3CC3)cn(C3CC3)c2=O)n1` [Example 240], with under 0.1 µM; and `Cn1cc(CNC[C@@H]2CCCO2)cc(C(=O)Nc2cc(-c3c(F)cc(C#N)cc3C(=O)N3CC(F)(F)C3)cc(C3CC3)n2)c1=O` [Example 241], with under 0.1 µM.
Under `CC(C)Oc1cc(-c2ccc(C#N)cc2C(=O)N2CC(F)(F)C2)cc(NC(=O)c2cc(CN[C@@H](C)C(C)(C)F)cn(C3CC3)c2=O)n1` [Example 242] stands under 0.1 µM.
Then `C[C@@H](CC(F)(F)F)NCc1cc(C(=O)Nc2cc(-c3ccc(C#N)cc3C(=O)N3CC(F)(F)C3)cc(C3CC3)n2)c(=O)n(C2CC2)c1` [Example 243], with under 0.1 µM.
With `CC(C)(F)CNCc1cc(C(=O)Nc2cc(-c3ccc(C#N)cc3C(=O)N3CC(F)(F)C3)cc(C3CC3)n2)c(=O)n(C2CC2)c1` [Example 244], the IC50 was under 0.1 µM.
Then `CCNc1cc(-c2ccc(Cl)cc2C(=O)N2CC(F)C2)cc(NC(=O)c2cc(CNC[C@H](C)OC)cn(C3CC3)c2=O)n1` [Example 245], with under 0.1 µM.
Under `CC(C)Oc1cc(-c2ccc(C#N)cc2C(=O)N2CC(F)C2)cc(NC(=O)c2cc(CN[C@@H](C)C3CCC3)cn(C)c2=O)n1` [Example 246] stands under 0.1 µM; under `CCOc1cc(-c2ccc(OC(F)F)cc2C(=O)N2CC(F)C2)cc(NC(=O)c2cc(CN[C@@H](C)C3CCC3)cn(C3CC3)c2=O)n1` [Example 247], under 0.1 µM.
Under `CO[C@@H](C)CNCc1cc(C(=O)Nc2cc(-c3ccc(Cl)cc3C(=O)N3CC(F)C3)cc(C3CC3)n2)c(=O)n(C2CC2)c1` [Example 248] stands under 0.1 µM; under `CC(C)Oc1cc(-c2ccc(OC(F)F)cc2C(=O)N2CC(F)C2)cc(NC(=O)c2cc(CN[C@@H](C)C3CCC3)cn(C3CC3)c2=O)n1` [Example 249], under 0.1 µM.
In turn, `CC(C)Oc1cc(-c2ccc(OC(F)F)cc2C(=O)N2CC(F)C2)cc(NC(=O)c2cc(CN[C@@H](C)C3CCC3)cn(C)c2=O)n1` [Example 250] came in with an IC50 of under 0.1 µM.
Then `CC(C)CNCc1cc(C(=O)Nc2cc(-c3ccc(Cl)cc3C(=O)N3CC(F)C3)cc(OC(C)C)n2)c(=O)n(C2CC2)c1` [Example 251], with under 0.1 µM.
Regarding `CO[C@@H](C)CNCc1cc(C(=O)Nc2cc(-c3ccc(OC(F)F)cc3C(=O)N3CC(F)C3)cc(OC(C)C)n2)c(=O)n(C2CC2)c1` [Example 252], the IC50 is under 0.1 µM.
Then `CO[C@@H](C)CNCc1cc(C(=O)Nc2cc(-c3ccc(Cl)cc3C(=O)N3CC(F)C3)cc(OC(C)C)n2)c(=O)n(C2CC2)c1` [Example 253], with under 0.1 µM; and `COc1ccc(-c2cc(NC(=O)c3cc(CN[C@@H](C)C4CCC4)cn(C4CC4)c3=O)nc(OC(C)C)c2)c(C(=O)N2CC(F)C2)c1` [Example 254], with under 0.1 µM.
Then `CCOc1cc(-c2ccc(Cl)cc2C(=O)N2CC(F)C2)cc(NC(=O)c2cc(CNC[C@H](C)OC)cn(C3CC3)c2=O)n1` [Example 255], with under 0.1 µM; and `CC(C)Oc1cc(-c2ccc(Cl)cc2C(=O)N2CC(F)C2)cc(NC(=O)c2cc(CN[C@@H](C)C3CCC3)cn(C3CC3)c2=O)n1` [Example 256], with under 0.1 µM; and `CCOc1cc(-c2ccc(OC(F)F)cc2C(=O)N2CC(F)C2)cc(NC(=O)c2cc(CN[C@@H](C)C3CCC3)cn(C)c2=O)n1` [Example 257], with under 0.1 µM.
Under `CO[C@@H](C)CNCc1cc(C(=O)Nc2cc(-c3ccc(Cl)cc3C(=O)N3CC(F)C3)cc(NC(C)C)n2)c(=O)n(C2CC2)c1` [Example 258] stands under 0.1 µM; under `CO[C@@H](C)[C@H](C)NCc1cc(C(=O)Nc2cc(-c3ccc(Cl)cc3C(=O)N3CC(F)C3)cc(OC(C)C)n2)c(=O)n(C2CC2)c1` [Example 259], under 0.1 µM; under `COc1ccc(-c2cc(NC(=O)c3cc(CN[C@@H](C)C4CCC4)cn(C4CC4)c3=O)nc(C3CC3)c2)c(C(=O)N2CC(F)C2)c1` [Example 260], under 0.1 µM.
For `COc1ccc(-c2cc(NC(=O)c3cc(CNC[C@H](C)OC)cn(C4CC4)c3=O)nc(OC(C)C)c2)c(C(=O)N2CC(F)C2)c1` [Example 261], the concentration for half-maximal inhibition (IC50) was under 0.1 µM.
In turn, `C[C@H](NCc1cc(C(=O)Nc2cc(-c3ccc(OC(F)F)cc3C(=O)N3CC(F)C3)cc(OC3CC3)n2)c(=O)n(C)c1)C1CCC1` [Example 262] had an IC50 of under 0.1 µM.
Then `CO[C@@H](C)CNCc1cc(C(=O)Nc2cc(-c3ccc(OC(F)F)cc3C(=O)N3CC(F)C3)cc(OC(C)C)n2)c(=O)n(C)c1` [Example 263], with under 0.1 µM; and `CC(C)Oc1cc(-c2ccc(Cl)cc2C(=O)N2CC(F)C2)cc(NC(=O)c2cc(CN[C@@H](C)C3CC3)cn(C3CC3)c2=O)n1` [Example 264], with under 0.1 µM; and `CO[C@@H](C)CNCc1cc(C(=O)Nc2cc(-c3ccc(C#N)cc3C(=O)N3CC(F)C3)cc(OC(C)C)n2)c(=O)n(C)c1` [Example 265], with under 0.1 µM.
Under `CCOc1cc(-c2ccc(OC(F)F)cc2C(=O)N2CC(F)C2)cc(NC(=O)c2cc(CNC[C@@H]3CCCO3)cn(C3CC3)c2=O)n1` [Example 266] stands under 0.1 µM.
Under `CC(C)CNCc1cc(C(=O)Nc2cc(-c3ccc(OC(F)F)cc3C(=O)N3CC(F)C3)cc(OC(C)C)n2)c(=O)n(C2CC2)c1` [Example 267] stands under 0.1 µM.
Take `CCOc1cc(-c2ccc(OC(F)F)cc2C(=O)N2CC(F)C2)cc(NC(=O)c2cc(CNCC(C)C)cn(C3CC3)c2=O)n1` [Example 268]: the concentration for half-maximal inhibition (IC50) was under 0.1 µM.
Then `COc1ccc(-c2cc(NC(=O)c3cc(CN[C@@H](C)[C@H](C)OC)cn(C4CC4)c3=O)nc(C3CC3)c2)c(C(=O)N2CC(F)C2)c1` [Example 269], with under 0.1 µM; and `COc1ccc(-c2cc(NC(=O)c3cc(CNC[C@H](C)OC)cn(C4CC4)c3=O)nc(C3CC3)c2)c(C(=O)N2CC(F)C2)c1` [Example 270], with under 0.1 µM.
`CC(C)Oc1cc(-c2ccc(Cl)cc2C(=O)N2CC(F)C2)cc(NC(=O)c2cc(CNC[C@@H]3CCCO3)cn(C3CC3)c2=O)n1` [Example 271]: the IC50 is under 0.1 µM.
Under `CC(C)CNCc1cc(C(=O)Nc2cc(-c3ccc(C#N)cc3C(=O)N3CC(F)C3)cc(OC(C)C)n2)c(=O)n(C)c1` [Example 272] stands under 0.1 µM; under `CO[C@@H](C)CNCc1cc(C(=O)Nc2cc(-c3ccc(C)cc3C(=O)N3CC(F)(F)C3)cc(C3CC3)n2)c(=O)n(C2CC2)c1` [Example 273], under 0.1 µM; under `COc1ccc(-c2cc(NC(=O)c3cc(CN[C@@H](C)C4CCC4)cn(C)c3=O)nc(OC(C)C)c2)c(C(=O)N2CC(F)C2)c1` [Example 274], under 0.1 µM.
Regarding `CCOc1cc(-c2ccc(OC(F)F)cc2C(=O)N2CC(F)C2)cc(NC(=O)c2cc(CNC[C@H](C)OC)cn(C)c2=O)n1` [Example 275], the half-inhibitory concentration (IC50) is under 0.1 µM.
